Source: US9115092B2, “Substituted quinazoline and pyrido-pyrimidine derivatives” (Asana Biosciences, LLC, priority 2010, dated 2015)
pIC50: −log10 of the molar value.

Tests used:
[1] = test system: pS6RP(S235/236), PC3 cells; test: In-cell Western assay, pS6RP(S235/236) in PC3 cells; format: cell-based, human; settings: Homo sapiens, PC-3, In-cell Western
Procedure, shortened: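 Overnight-seeded PC3 cells were treated 2 h with serially diluted compound, then fixed and immunostained with phospho-specific primary antibodies and Eu-labelled secondary. Time-resolved Eu signal read at 615 nm (ex 340 nm), normalised by Hoechst 33258 staining (ex 355/em 460 nm); IC50 from sigmoidal dose-response fit.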

[2] = target: T1, PI3Kα (wild-type), P110/P85α (Homo sapiens, UniProt P42336); test: PI3 Kinase TR-FRET assay, PI3Kα (wild-type); format: biochemical
T1 construct: made in house; host or cells: SF9 insect cells
Procedure, shortened: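 Sf9-expressed His-purified P110/P85α (5 ng) preincubated 60 min RT with compound and PIP2 in buffer with 40 mM MgCl2, 5 mM DTT; reaction started with ATP (PIP2 and ATP both 10 μM), 30 min RT. PIP3 detected by TR-FRET displacement, 665/615 nm ratio; IC50 from dose-response curves.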

PC3 cells = test: XTT assay for cell viability, PC3 cells; format: cell-based, human; settings: Homo sapiens, PC-3, cell viability
Procedure, shortened: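 PC3 cells seeded at 1000 cells/well, grown 24 h, then exposed to serial dilutions of compound for 96 h. Viability read by XTT dye at 37° C, absorbance 465 nm. EC50 from sigmoidal dose-response fit.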

mTOR kinase = target: T2, mTOR kinase (Homo sapiens, UniProt P42345); test: mTOR kinase TR-FRET assay; format: biochemical; settings: read-out: mTO R
T2 construct: purchased Millipore, USA
Procedure, shortened: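 Compounds preincubated 60 min with mTOR (5 ng) in HEPES pH 7.5, EGTA, MnCl2; ULight-p70 S6K Thr389 peptide (50 nM) and ATP (20 μM) then added, 60 min at room temperature. EDTA-stopped, Eu-anti-phospho antibody detection by TR-FRET (665/615 nm); IC50 from variable-slope sigmoidal fit.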

T1 sequence (P42336 whole entry): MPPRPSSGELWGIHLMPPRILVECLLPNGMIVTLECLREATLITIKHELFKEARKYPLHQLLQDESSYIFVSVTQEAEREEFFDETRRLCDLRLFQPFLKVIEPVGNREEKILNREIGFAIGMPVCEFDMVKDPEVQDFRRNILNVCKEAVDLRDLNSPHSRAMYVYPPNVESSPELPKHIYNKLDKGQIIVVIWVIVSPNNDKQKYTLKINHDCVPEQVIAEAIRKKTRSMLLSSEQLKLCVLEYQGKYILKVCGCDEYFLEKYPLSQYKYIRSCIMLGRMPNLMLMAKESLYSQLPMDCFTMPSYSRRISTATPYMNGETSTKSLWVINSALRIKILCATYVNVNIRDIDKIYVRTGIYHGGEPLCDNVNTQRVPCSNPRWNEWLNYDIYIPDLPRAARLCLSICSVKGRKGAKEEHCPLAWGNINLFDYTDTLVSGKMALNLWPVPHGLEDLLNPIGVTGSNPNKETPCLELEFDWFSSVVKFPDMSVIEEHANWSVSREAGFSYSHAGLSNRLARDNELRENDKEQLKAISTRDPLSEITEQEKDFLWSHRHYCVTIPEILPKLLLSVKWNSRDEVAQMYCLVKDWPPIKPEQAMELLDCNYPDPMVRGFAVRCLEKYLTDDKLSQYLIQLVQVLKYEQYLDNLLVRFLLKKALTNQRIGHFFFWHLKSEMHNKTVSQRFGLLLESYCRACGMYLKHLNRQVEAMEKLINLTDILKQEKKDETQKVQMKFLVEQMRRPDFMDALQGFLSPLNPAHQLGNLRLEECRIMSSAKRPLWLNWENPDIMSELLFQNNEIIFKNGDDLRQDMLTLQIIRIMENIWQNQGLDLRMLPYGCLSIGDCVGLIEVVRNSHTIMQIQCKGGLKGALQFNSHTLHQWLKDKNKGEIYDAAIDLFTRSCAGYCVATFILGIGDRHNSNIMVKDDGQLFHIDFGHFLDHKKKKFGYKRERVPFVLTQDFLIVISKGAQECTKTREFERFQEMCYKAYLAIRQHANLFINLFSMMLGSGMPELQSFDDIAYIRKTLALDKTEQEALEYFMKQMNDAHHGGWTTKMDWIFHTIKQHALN
T1 sequence (P27986 whole entry partner): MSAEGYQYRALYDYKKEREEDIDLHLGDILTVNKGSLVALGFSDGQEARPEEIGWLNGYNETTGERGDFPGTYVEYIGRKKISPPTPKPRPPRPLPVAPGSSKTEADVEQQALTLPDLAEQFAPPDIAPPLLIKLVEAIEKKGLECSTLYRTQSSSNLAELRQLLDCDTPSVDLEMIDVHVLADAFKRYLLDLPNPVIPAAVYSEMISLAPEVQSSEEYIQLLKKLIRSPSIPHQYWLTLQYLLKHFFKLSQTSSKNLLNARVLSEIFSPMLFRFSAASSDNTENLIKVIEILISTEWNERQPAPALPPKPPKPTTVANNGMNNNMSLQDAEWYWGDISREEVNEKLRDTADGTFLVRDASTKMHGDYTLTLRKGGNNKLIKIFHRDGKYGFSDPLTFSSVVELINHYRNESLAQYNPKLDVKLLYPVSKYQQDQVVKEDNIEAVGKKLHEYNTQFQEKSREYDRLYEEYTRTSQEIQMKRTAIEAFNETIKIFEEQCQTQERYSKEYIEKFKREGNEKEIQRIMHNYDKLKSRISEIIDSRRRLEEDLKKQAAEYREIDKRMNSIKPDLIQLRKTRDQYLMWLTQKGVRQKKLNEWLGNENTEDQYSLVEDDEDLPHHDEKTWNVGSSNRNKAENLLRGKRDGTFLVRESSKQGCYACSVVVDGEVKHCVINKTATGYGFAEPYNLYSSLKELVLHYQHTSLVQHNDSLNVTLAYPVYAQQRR

pIC50 [1]	pIC50 [2]	pIC50 (PC3 cells)	pIC50 (mTOR kinase)	Compound
> 7.00	> 7.30	> 7.00	> 7.30	Cc1ccc(-c2ccc3c(N4CCOCC4)nc(-c4ccc(NC(=O)Nc5ccc(C(=O)N6CCC(O)C6)cc5)cc4)nc3c2)o1 (stereo not drawn) [Example 204, 1-(4-(3-hydroxypyrrolidine-1-carbonyl)phenyl)-3-(4-(7-(5-methylfuran-2-yl)-4-morpholino-quinazolin-2-yl)phenyl)urea]
> 7.00	> 7.30	6.30 to 7.00	> 7.30	CN(C)C(=O)c1ccc(NC(=O)Nc2ccc(-c3nc(N4CCOCC4)c4ccc(-c5cnn(C)c5)cc4n3)cn2)cc1 [Example 55, N,N-dimethyl-4-(3-{5-[7-(1-methyl-1H-pyrazol-4-yl)-4-morpholin-4-yl-quinazolin-2-yl]-pyridin-2-yl}-ureido)-benzamide]
5.00 to 6.70	> 7.30	5.00 to 6.70	> 7.30	Cc1ccncc1-c1cnc2c(N3CCOCC3)nc(-c3ccc(NC(=O)Nc4ccc(C(=O)N(C)C)cc4)cc3)nc2c1 [Example 93, N,N-dimethyl-4-(3-(4-(7-(4-methylpyridin-3-yl)-4-morpholino-pyrido[3,2-d]pyrimidin-2-yl)phenyl)ureido)-benzamide]
6.30 to 7.00	> 7.30	6.30 to 7.00	> 7.30	Cc1ccc(-c2ccc3c(N4CCOCC4)nc(-c4ccc(NC(=O)Nc5ccc(C(=O)N(C)CCN(C)C)cc5)cc4)nc3c2)o1 [Example 63, N-(2-dimethylamino-ethyl)-N-methyl-4-(3-{4-[7-(5-methyl-furan-2-yl)-4-morpholin-4-yl-quinazolin-2-yl]-phenyl}-ureido)-benzamide]
5.00 to 6.70	> 7.30	5.00 to 6.70	6.70 to 7.30	CN(C)C(=O)c1ccc(NC(=O)Nc2ccc(-c3nc(N4CCOCC4)c4ncc(-c5cccc(S(C)(=O)=O)c5)cc4n3)cn2)cc1 [Example 115, N,N-dimethyl-4-(3-(5-(7-(3-(methylsulfonyl)phenyl)-4-morpholino-pyrido[3,2-d]pyrimidin-2-yl)pyridin-2-yl)ureido)-benzamide]
5.00 to 6.70	> 7.30	5.00 to 6.70	> 7.30	COc1ncc(-c2ccc3c(N4CCOCC4)nc(-c4ccc(NC(=O)Nc5ccc(C(=O)N(C)C)cc5)cc4F)nc3c2)cn1 [Example 242, 4-(3-(3-fluoro-4-(7-(2-methoxypyrimidin-5-yl)-4-morpholino-quinazolin-2-yl)phenyl)ureido)-N,N-dimethyl-benzamide]
5.00 to 6.70	> 7.30	5.00 to 6.70	> 7.30	COc1ccc2c(N3CCOCC3)nc(-c3ccc(NC(=O)Nc4ccc(C(=O)N(C)C)cc4)cc3)nc2c1 [Example 180, 4-(3-(4-(7-methoxy-4-morpholino-quinazolin-2-yl)phenyl)ureido)-N,N-dimethyl-benzamide]
5.00 to 6.70	> 7.30	5.00 to 6.70	> 7.30	CN(C)C1CCN(C(=O)c2ccc(NC(=O)Nc3ccc(-c4nc(N5CCOCC5)c5ncc(-c6cnn(C)c6)cc5n4)cc3)cc2)CC1 [Example 186, 1-(4-(4-(dimethylamino)piperidine-1-carbonyl)phenyl)-3-(4-(7-(1-methyl-1H-pyrazol-4-yl)-4-morpholino-pyrido[3,2-d]pyrimidin-2-yl)phenyl)urea]
5.00 to 6.70	> 7.30	5.00 to 6.70	> 7.30	CN(C)C1CCN(C(=O)c2ccc(NC(=O)Nc3ccc(-c4nc(N5CCOCC5)c5ccc(C(C)(C)O)cc5n4)cc3)cc2)CC1 [Example 286, 1-(4-(4-(dimethylamino)piperidine-1-carbonyl)phenyl)-3-(4-(7-(2-hydroxypropan-2-yl)-4-morpholino-quinazolin-2-yl)phenyl)urea]
5.00 to 6.70	> 7.30	5.00 to 6.70	> 7.30	Cc1ccncc1-c1ccc2c(N3CCOCC3)nc(-c3ccc(NC(=O)Nc4ccc(C(=O)N5CCC(N(C)C)CC5)cc4)cc3)nc2c1 [Example 193, 1-(4-(4-(dimethylamino)piperidine-1-carbonyl)phenyl)-3-(4-(7-(4-methylpyridin-3-yl)-4-morpholino-quinazolin-2-yl)phenyl)urea]
5.00 to 6.70	> 7.30	5.00 to 6.70	> 7.30	CN(C)C1CCN(C(=O)c2ccc(NC(=O)Nc3ccc(-c4nc(N5CCOCC5)c5ncc(-c6cccnc6F)cc5n4)cc3F)cc2)C1 (stereo in doubt) [Example 213, (S)-1-(4-(3-(dimethylamino)pyrrolidine-1-carbonyl)phenyl)-3-(2-fluoro-4-(7-(2-fluoropyridin-3-yl)-4-morpholino-pyrido[3,2-d]pyrimidin-2-yl)phenyl)urea]
5.00 to 6.70	5.00 to 6.70	> 7.00	> 7.30	CC1CN(c2nc(-c3ccc(NC(=O)Nc4ccc(C(=O)N(C)C)cc4)cc3)nc3cc(-c4cncnc4)ccc23)CC(C)O1 (stereo not drawn) [Example 128, 4-(3-(4-(4-(2,6-dimethylmorpholino)-7-(pyrimidin-5-yl)quinazolin-2-yl)phenyl)ureido)-N,N-dimethyl-benzamide]
5.00 to 6.70	> 7.30	5.00 to 6.70	> 7.30	CN(C)C(=O)c1ccc(NC(=O)Nc2ccc(-c3nc(N4CCOCC4)c4ncc(-c5cnc(N)nc5)cc4n3)cc2)cc1 [Example 92, 4-(3-(4-(7-(2-aminopyrimidin-5-yl)-4-morpholino-pyrido[3,2-d]pyrimidin-2-yl)phenyl)ureido)-N,N-dimethyl-benzamide]
5.00 to 6.70	6.70 to 7.30	5.00 to 6.70	6.70 to 7.30	CN(C)C(=O)c1ccc(NC(=O)Nc2ccc(-c3nc(N4CCOCC4)c4ccc(-c5ccncc5)cc4n3)cc2F)cc1 [Example 137, 4-(3-(2-fluoro-4-(4-morpholino-7-(pyridin-4-yl)quinazolin-2-yl)phenyl)ureido)-N,N-dimethyl-benzamide]
> 7.00	> 7.30	6.30 to 7.00	> 7.30	CN(C)CCN(C)C(=O)c1ccc(NC(=O)Nc2ccc(-c3nc(N4CCOCC4)c4ccc(-c5ccncc5)cc4n3)cc2)cc1 [Example 72, N-(2-dimethylamino-ethyl)-N-methyl-4-{3-[4-(4-morpholin-4-yl-7-pyridin-4-yl-quinazolin-2-yl)-phenyl]-ureido}-benzamide]
5.00 to 6.70	> 7.30	5.00 to 6.70	> 7.30	CC(O)c1ccc(-c2ccc3c(N4CCOCC4)nc(-c4ccc(NC(=O)Nc5ccc(C(=O)N(C)C)cc5)cc4)nc3c2)o1 (stereo not drawn) [Example 206, 4-(3-(4-(7-(5-(1-hydroxyethyl)furan-2-yl)-4-morpholino-quinazolin-2-yl)phenyl)ureido)-N,N-dimethyl-benzamide]
5.00 to 6.70	6.70 to 7.30	5.00 to 6.70	> 7.30	Cc1noc(C)c1-c1ccc2c(N3CCOCC3)nc(-c3ccc(NC(=O)Nc4ccc(C(=O)N5CCC(N(C)C)C5)cc4)cc3)nc2c1 (stereo in doubt) [Example 220, (S)-1-(4-(3-(dimethylamino)pyrrolidine-1-carbonyl)phenyl)-3-(4-(7-(3,5-dimethylisoxazol-4-yl)-4-morpholino-quinazolin-2-yl)phenyl)urea]
5.00 to 6.70	> 7.30	5.00 to 6.70	> 7.30	CN(C)C(=O)c1ccc(NC(=O)Nc2ccc(-c3nc(N4CCOCC4)c4cc(F)c(-c5cccnc5F)cc4n3)cc2)cc1 [Example 107, 4-(3-(4-(6-fluoro-7-(2-fluoropyridin-3-yl)-4-morpholino-quinazolin-2-yl)phenyl)ureido)-N,N-dimethyl-benzamide]
> 7.00	> 7.30	6.30 to 7.00	> 7.30	Cc1ccncc1-c1ccc2c(N3CCOCC3)nc(-c3ccc(NC(=O)Nc4ccc(C(=O)N(C)C)cc4)cc3)nc2c1 [Example 62, N,N-dimethyl-4-(3-{4-[7-(4-methyl-pyridin-3-yl)-4-morpholin-4-yl-quinazolin-2-yl]-phenyl}-ureido)-benzamide]
5.00 to 6.70	> 7.30	5.00 to 6.70	> 7.30	CN(C)C(=O)c1ccc(NC(=O)Nc2ccc(-c3nc(N4CCOCC4)c4ccc(-c5cccnc5)cc4n3)cc2F)cc1 [Example 103, 4-(3-(2-fluoro-4-(4-morpholino-7-(pyridin-3-yl)quinazolin-2-yl)phenyl)ureido)-N,N-dimethyl-benzamide]
5.00 to 6.70	> 7.30	5.00 to 6.70	> 7.30	CN(C)C(=O)c1ccc(NC(=O)Nc2ccc(-c3nc(N4CCOCC4)c4ccc(-c5ccc(CO)o5)cc4n3)cc2F)cc1 [Example 203, 4-(3-(2-fluoro-4-(7-(5-(hydroxymethyl)furan-2-yl)-4-morpholino-quinazolin-2-yl)phenyl)ureido)-N,N-dimethyl-benzamide]
